Test results as given in BindingDB's records for doi:10.7270/Q2RJ4GVG (The Scripps Research Institute Molecular Screening Center, 2007).

Molecular target: T1, Isoform 2 of Nuclear receptor ROR-alpha (Alpha-2) (Homo sapiens, UniProt P35398)
T1 sequence (P35398 whole entry): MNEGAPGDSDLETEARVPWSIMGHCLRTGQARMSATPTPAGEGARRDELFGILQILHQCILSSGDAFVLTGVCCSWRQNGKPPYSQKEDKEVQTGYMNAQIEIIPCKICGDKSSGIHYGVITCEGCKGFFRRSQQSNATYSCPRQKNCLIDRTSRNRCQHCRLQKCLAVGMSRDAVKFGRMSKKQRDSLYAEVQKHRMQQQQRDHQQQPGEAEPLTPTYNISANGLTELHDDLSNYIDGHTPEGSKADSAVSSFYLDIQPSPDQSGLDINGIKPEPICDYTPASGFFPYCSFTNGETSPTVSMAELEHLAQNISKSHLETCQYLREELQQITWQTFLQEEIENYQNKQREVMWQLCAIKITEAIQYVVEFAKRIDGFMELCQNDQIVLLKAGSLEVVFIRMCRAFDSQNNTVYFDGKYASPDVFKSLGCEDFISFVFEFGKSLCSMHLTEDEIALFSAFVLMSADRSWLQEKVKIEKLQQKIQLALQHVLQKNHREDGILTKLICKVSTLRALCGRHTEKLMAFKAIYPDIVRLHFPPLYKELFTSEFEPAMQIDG
Experiment: RORA ligand-binding domain transactivation agonists – cell-based, CHO-K1, Gal4-RORA LBD, luciferase luminescence, dose response (AID 681)

[1] = inactive by the depositor's call

Row | SMILES | EC50 [µM] | EC50 [1] [µM]
1 | CCOC(=O)c1ccccc1NC(=O)CSc1nnnn1C1CCCCC1 [2-[2-(1-Cyclohexyl-1H-tetrazol-5-ylsulfanyl)-acetylamino]-benzoic acid ethyl ester] | > 99 | –
2 | Cc1ccc2nc(Nc3ccc4[nH]c(O)nc4c3)c(-n3nc(C)cc3C)nc2c1 [5-[[3-(3,5-dimethyl-1-pyrazolyl)-6-methyl-2-quinoxalinyl]amino]-1,3-dihydrobenzimidazol-2-one] | > 3.67 | –
3 | Cc1ccccc1Cn1ccc(NC(=O)c2onc(C)c2Cl)n1 [4-chloranyl-3-methyl-N-[1-[(2-methylphenyl)methyl]pyrazol-3-yl]-1,2-oxazole-5-carboxamide] | > 11 | –
4 | Cc1ccc(-c2nc(C#N)c(NCc3ccco3)o2)cc1 [5-(2-furanylmethylamino)-2-(4-methylphenyl)-4-oxazolecarbonitrile] | 2.32 | –
5 | O=C(c1ccc(-c2nnc(-c3ccccc3)o2)cc1)N1CCCCCC1 [1-azepanyl-[4-(5-phenyl-1,3,4-oxadiazol-2-yl)phenyl]methanone] | 0.282 | –
6 | CN1CCN(S(=O)(=O)c2ccc(Br)s2)CC1 [1-(5-bromanylthiophen-2-yl)sulfonyl-4-methyl-piperazine] | > 99 | –
7 | Cc1cc(N)c(NC2=CC(=O)CC(C)(C)C2)cc1C [3-(2-amino-4,5-dimethyl-anilino)-5,5-dimethyl-cyclohex-2-en-1-one] | > 99 | –
8 | Clc1ccc(-c2nnc(-c3ccccc3Cl)o2)cc1 [2-(2-chlorophenyl)-5-(4-chlorophenyl)-1,3,4-oxadiazole] | 0.431 | –
9 | Clc1ccccc1OCCn1cnc2ccccc21 [1-[2-(2-chloranylphenoxy)ethyl]benzimidazole] | > 1.22 | –
10 | CC(=O)C(C)Oc1ccc2c3c(c(=O)oc2c1C)CCCC3 (configuration not stated) [3-(2-keto-1-methyl-propoxy)-4-methyl-7,8,9,10-tetrahydrobenzo[c]chromen-6-one] | 0.628 | –
11 | CCCCOC(=O)C(C)Oc1ccc(=O)n(-c2ccccc2)n1 (configuration not stated) [2-(6-keto-1-phenyl-pyridazin-3-yl)oxypropionic acid butyl ester] | > 99 | –
12 | Cn1c(SCc2ccccc2F)nc2cccnc21 [2-(2-Fluoro-benzylsulfanyl)-3-methyl-3H-imidazo[4,5-b]pyridine] | 1.98 | –
13 | Cc1cc(NC(=O)c2oc3ccccc3c2C)ccc1-n1cnnn1 [3-Methyl-benzofuran-2-carboxylic acid (3-methyl-4-tetrazol-1-yl-phenyl)-amide] | 8.22 | –
14 | O=C(c1ccco1)N1CCN(c2ncnc3c(-c4ccccc4)nsc23)CC1 [2-furanyl-[4-(3-phenyl-7-isothiazolo[4,5-d]pyrimidinyl)-1-piperazinyl]methanone] | 4.34 | –
15 | O=C1OC(N2CCN(Cc3ccccc3)CC2)c2ccccc21 (configuration not stated) [3-(4-benzylpiperazin-1-yl)-3H-2-benzofuran-1-one] | > 99 | –
16 | COc1cccc(NC(=O)c2nnn(Cc3ccc(Br)cc3F)c2N)c1 [5-amino-1-(4-bromo-2-fluoro-benzyl)-N-(3-methoxyphenyl)triazole-4-carboxamide] | 4.57 | –

Row | SMILES | EC50 [µM] | EC50 [1] [µM]
17 | COc1cc(C)c(C(C)C)cc1S(=O)(=O)n1cnc(C)c1 [1-(2-methoxy-4-methyl-5-propan-2-yl-phenyl)sulfonyl-4-methyl-imidazole] | 1.85 | –
18 | COCCOC(=O)c1[nH]c2c(c1C)C(=O)CC(c1cc(OC)ccc1OC)C2 (configuration not stated) [2-methoxyethyl 6-(2,5-dimethoxyphenyl)-3-methyl-4-oxo-1,5,6,7-tetrahydroindole-2-carboxylate] | > 3.67 | –
19 | O=c1c2ccccc2nc2ccc(NCc3ccco3)nn12 [2-(2-furanylmethylamino)-10-pyridazino[6,1-b]quinazolinone] | – | 10.8
20 | O=C1N(CCCN2C(=O)C3(OCCO3)c3ccccc32)c2ccccc2C12OCCO2 [1'-[3-(2'-ketospiro[1,3-dioxolane-2,3'-indoline]-1'-yl)propyl]spiro[1,3-dioxolane-2,3'-indoline]-2'-one] | > 99 | –
21 | CCN(CC)C(=O)Oc1ccc2c(=O)c(-c3ccccc3)coc2c1 [(4-oxidanylidene-3-phenyl-chromen-7-yl) N,N-diethylcarbamate] | 1.24 | –
22 | COc1cccc(-c2noc(-c3cccs3)n2)c1 [3-(3-methoxyphenyl)-5-(2-thienyl)-1,2,4-oxadiazole] | > 0.407 | –
23 | CCOc1ccc(-c2nc(C#N)c(NC3CC3)o2)cc1 [5-(cyclopropylamino)-2-(4-ethoxyphenyl)-1,3-oxazole-4-carbonitrile] | 0.624 | –
24 | CCOc1cc(N2CCOCC2)c(OCC)cc1NS(=O)(=O)c1ccc(Cl)s1 [5-chloranyl-N-(2,5-diethoxy-4-morpholin-4-yl-phenyl)thiophene-2-sulfonamide] | 2.64 | –
25 | CCn1c(-c2ccc(N(C)C)cc2)nc2ccccc21 [4-(1-ethyl-2-benzimidazolyl)-N,N-dimethylaniline] | 0.823 | –
26 | Oc1coc2ccc(OCc3ccc(F)cc3)cc12 [5-(4-fluorobenzyl)oxycoumaran-3-one] | 3.63 | –
27 | Cc1cc(NCCOCCO)n2ncc(-c3ccc(Cl)cc3)c2n1 [2-[2-[[3-(4-chlorophenyl)-5-methyl-7-pyrazolo[1,5-a]pyrimidinyl]amino]ethoxy]ethanol] | 0.536 | –
28 | O=C(Nc1ccc(N2CCCCC2)cc1)c1cncc(Br)c1 [5-bromanyl-N-(4-piperidin-1-ylphenyl)pyridine-3-carboxamide] | 1.02 | –
29 | COc1ccccc1-c1nc(-c2ccncc2)no1 [4-[5-(2-Methoxy-phenyl)-[1,2,4]oxadiazol-3-yl]-pyridine] | 3.44 | –
30 | CCCCOc1ccc(-c2nnn(CC(=O)NCc3ccco3)n2)cc1 [2-[5-(4-Butoxy-phenyl)-tetrazol-2-yl]-N-furan-2-ylmethyl-acetamide] | 5.07 | –
31 | COc1cccc(-c2noc(-c3cccnc3)n2)c1 [3-(3-methoxyphenyl)-5-(3-pyridinyl)-1,2,4-oxadiazole] | 0.853 | –

Now from value to molecule:

Row | EC50 [µM] | EC50 [1] [µM] | SMILES
32 | 0.563 | – | Cc1cccn2cc(-c3ccccc3)nc12 [8-methyl-2-phenyl-imidazo[1,2-a]pyridine]
33 | > 99 | – | CCn1c(Cn2nnc(-c3ccccc3)n2)nnc1SCC(=O)Nc1ccc(C(C)=O)cc1 [MLS000068275]
34 | 1.35 | – | C=CCOc1ccc(C=CC(C)N=O)cc1 (configuration not stated) [(E)-4-(4-allyloxyphenyl)but-3-en-2-one oxime]
35 | 4 | – | COc1ccc(C(=O)n2c(-c3ccco3)nc3ccccc32)cc1 [MLS000039368]
36 | 1.75 | – | COc1ccccc1-c1nnc(NC(C)=O)s1 [MLS000041972]
37 | 1.67 | – | Cc1c(C(=O)OCC2CCCO2)[nH]c2c1C(=O)CC(c1ccco1)C2 (configuration not stated) [oxolan-2-ylmethyl 6-(furan-2-yl)-3-methyl-4-oxo-1,5,6,7-tetrahydroindole-2-carboxylate]
38 | > 99 | – | COC(=O)c1c(NC(=O)CC2SCC(C(=O)OC)NC2=O)sc2c1CCCC2 (configuration not stated) [6-[2-[(3-carbomethoxy-4,5,6,7-tetrahydrobenzothiophen-2-yl)amino]-2-keto-ethyl]-5-keto-thiomorpholine-3-carboxylic acid methyl ester]
39 | – | 10.1 | O=C(NCc1cccs1)c1noc2c1CCCC2 [MLS000087354]
40 | – | 12.1 | O=C(CSc1nc[nH]n1)Nc1nnc(-c2ccccc2)s1 [SMR000091719]
41 | 4.09 | – | O=C(Nc1ccc2nc(-c3ccc(Br)o3)[nH]c2c1)c1cccs1 [SMR000046012]
42 | 2.03 | – | COc1ccc2nc(NC(=O)CSc3nnc(-c4ccoc4C)n3C)sc2c1 [MLS000073639]
43 | 0.491 | – | CCOc1ccc(C=CC(C)N=O)cc1 (configuration not stated) [(Z)-4-(4-ethoxyphenyl)-3-buten-2-one oxime]
44 | 5.11 | – | Cc1nc(N=CN(C)C)sc1C(=O)Nc1ccccc1 [SMR000107046]
45 | > 99 | – | CCN(CCCNC(=O)c1cn(CC)c2ccc(S(=O)(=O)N(C)C)cc2c1=O)c1cccc(C)c1 [6-(dimethylsulfamoyl)-1-ethyl-N-[3-(N-ethyl-3-methyl-anilino)propyl]-4-keto-quinoline-3-carboxamide]
46 | 0.317 | – | O=C(Nc1nnc(C23CC4CC(CC(C4)C2)C3)s1)c1ccco1 [N-[5-(1-adamantyl)-1,3,4-thiadiazol-2-yl]furan-2-carboxamide]
47 | 1.53 | – | CC1=CCC(COC(=O)Nc2ccccc2)CC1 (configuration not stated) [(4-methylcyclohex-3-en-1-yl)methyl N-phenylcarbamate]
48 | 0.221 | – | Cn1cccc1C(=O)OCc1csc(-c2ccccc2)n1 [(2-phenyl-1,3-thiazol-4-yl)methyl 1-methylpyrrole-2-carboxylate]
49 | > 3.67 | – | CCc1nnc2c3cnn(-c4ccccc4)c3ncn12 [MLS000080478]
50 | 1.83 | – | CCOC(=O)CSc1nc2cc(OCC)ccc2cc1C#N [(3-Cyano-7-ethoxy-quinolin-2-ylsulfanyl)-acetic acid ethyl ester]
51 | > 99 | – | COc1ccc(CCC(=O)Nc2ccc3c(c2)OCCO3)cc1 [MLS000110197]
52 | 3.48 | – | CC(C)CNS(=O)(=O)c1ccc(C(=O)Nc2ccc3c(c2)OCCO3)cc1 [MLS000032888]
53 | > 3.67 | – | CCOc1ccc2nc(N3CCC(C(=O)N4CCN(c5ccccn5)CC4)CC3)sc2c1 [MLS000119552]
54 | 3.43 | – | CCOC(=O)Nc1ccc2c(c1)Nc1ccccc1S2 [(10H-Phenothiazin-2-yl)-carbamic acid ethyl ester]
55 | > 99 | – | Oc1ccc(Cl)cc1C=Nc1nc2ccccc2[nH]1 [SMR000103225]
56 | 1.03 | – | O=C(NC1CCCC1)c1cc(-c2cccs2)on1 [MLS000087238]
57 | > 99 | – | COc1ccc(C(O)P(=O)(O)CCc2ccccc2)cc1 (configuration not stated) [MLS000038577]
